Laboratory results as given in article PMC5266694, “Identification of Key Residues in the NisK Sensor Region for Nisin Biosynthesis Regulation” (Frontiers in Microbiology, 2017).
Where no end group is shown, it is not given here.

How the values were obtained:
NisK = assay: Far-Western blotting, b-nisin binding to NisK; set-up: species or system Lactococcus lactis; conditions: membrane proteins of L. lactis MG1363 RKNlacZ, SDS-PAGE, PVDF, denatured and renatured; biotin-labelled nisin, HRP-streptavidin detection
Description: (§1) Lactococcus lactis MG1363 RKNlacZ mutant cells were harvested from 500 ml broth when OD600 reached 0.6–0.7, washed with PBS buffer (pH 7.4) once and resuspended in 20 ml PBS buffer. After lysing by sonication, cells were centrifuged at 6,000 g for 1 h to remove intact cells. The supernatant was ultra-centrifuged at 120,000 g for 2 h to separate soluble (cytoplasmic fraction) and insoluble (cell membrane fraction) proteins.
Nisin was labeled by biotin according to the method shown by ([Koteva et al., 2010]) in Beijing Biosynthesis Biotechnology Co., Ltd.. Briefly, nisin peptide was resolved by NaHCO3 (0.1 M, pH = 9.0) and incubated with biotin. Nisin labeled with biotin was purified by High Performance Liquid Chromatography and was named as b-nisin. The insoluble (cell membrane fraction) proteins were separated from L. lactis MG1363 RKNlacZ mutant cells. Far-Western blotting assays were performed using a modified protocol as described by ([Wu Y. et al., 2007]). Briefly, the insoluble proteins were firstly separated by SDS-PAGE, and transferred to a PVDF membrane as in a standard Western blotting. The proteins in the membrane were then denatured and renatured. […] The horseradish peroxidase (HRP) conjugated streptavidin was used as the secondary antibody, and the lanes indicating b-nisin binding to NisK or NisK mutants were detected by photographic film. […]

NisK mutant 69–73A5 = assay: Far-Western blotting, b-nisin binding to NisK mutant; set-up: species or system Lactococcus lactis; conditions: membrane protein of strain 69–73A5; biotin-labelled nisin, HRP-streptavidin
Description: as §1
(§2) Nisin was labeled by biotin according to the method shown by ([Koteva et al., 2010]) in Beijing Biosynthesis Biotechnology Co., Ltd.. Briefly, nisin peptide was resolved by NaHCO3 (0.1 M, pH = 9.0) and incubated with biotin. Nisin labeled with biotin was purified by High Performance Liquid Chromatography and was named as b-nisin. The insoluble (cell membrane fraction) proteins were separated from L. lactis MG1363 RKNlacZ mutant cells. Far-Western blotting assays were performed using a modified protocol as described by ([Wu Y. et al., 2007]). Briefly, the insoluble proteins were firstly separated by SDS-PAGE, and transferred to a PVDF membrane as in a standard Western blotting. The proteins in the membrane were then denatured and renatured. The membrane is then blocked and probed with b-nisin. The horseradish peroxidase (HRP) conjugated streptavidin was used as the secondary antibody, and the lanes indicating b-nisin binding to NisK or NisK mutants were detected by photographic film.
(§3) In order to clarify whether the important residues in NisK affected the interaction between nisin and NisK, the membrane proteins from L. lactis MG1363 RKNlacZ strain and the mutant strain M66A, D72A, Y113A, F133A, 69–73A5, and 74–76A3 were extracted. Nisin was labeled by biotin, and the modified product was named by b-nisin. The interaction between b-nisin and membrane proteins was studied by far-Western blotting assay.

NisK mutant 74–76A3 = assay: as above; set-up: species or system Lactococcus lactis; conditions: membrane protein of strain 74–76A3; biotin-labelled nisin, HRP-streptavidin
Description: as §1, §2, §3

NisK mutant D72A = assay: as above; set-up: species or system Lactococcus lactis; conditions: membrane protein of strain D72A; biotin-labelled nisin, HRP-streptavidin
Description: as §1, §2, §3

NisK mutant F133A = assay: as above; set-up: species or system Lactococcus lactis; conditions: membrane protein of strain F133A; biotin-labelled nisin, HRP-streptavidin
Description: as §1, §2, §3

NisK mutant M66A = assay: as above; set-up: species or system Lactococcus lactis; conditions: membrane protein of strain M66A; biotin-labelled nisin, HRP-streptavidin
Description: as §1, §2, §3

NisK mutant Y113A = assay: as above; set-up: species or system Lactococcus lactis; conditions: membrane protein of strain Y113A; biotin-labelled nisin, HRP-streptavidin
Description: as §1, §2, §3

[1] = target: T1, His6-NisKex (NisK extracellular region) (Lactococcus lactis CV56, UniProt P42707 36-144); assay: SPR; BIACORE3000; His6-NisKex immobilised on a CM5 chip by amide coupling to 1000 RU; nisin in HBS-T as analyte, 260 to 8.125 μM in twofold dilution, 30 μl/min, 25°C; 1:1 (Langmuir) model with local fitted Rmax; conditions: both partners purified
T1 construct: source: E. coli (pET28a), purified
T1 sequence (looked up): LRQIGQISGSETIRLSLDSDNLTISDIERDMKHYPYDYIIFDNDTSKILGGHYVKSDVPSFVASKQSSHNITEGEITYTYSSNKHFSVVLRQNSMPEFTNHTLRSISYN

Molecule	binding to NisK on far-Western blot (NisK)	binding to NisK mutant on far-Western blot (NisK mutant 69–73A5)	binding to NisK mutant on far-Western blot (NisK mutant 74–76A3)	binding to NisK mutant on far-Western blot (NisK mutant D72A)	binding to NisK mutant on far-Western blot (NisK mutant F133A)	binding to NisK mutant on far-Western blot (NisK mutant M66A)	binding to NisK mutant on far-Western blot (NisK mutant Y113A)	koff [1]	kon [1]
b-nisin: Nisin labeled with biotin, purified by High Performance Liquid Chromatography (ITSISLCTPGCKTGALMGCNMKTATCHCSIHVSK; ends and bridges not checked; also: labelled with biotin, site not given here)	labeled a membrane protein of about 51.5 kDa	did not show b-nisin binding bands	did not show b-nisin binding bands	did not show b-nisin binding bands	did not show b-nisin binding bands	did not show b-nisin binding bands	did not show b-nisin binding bands		
ITSISLCTPGCKTGALMGCNMKTATCHCSIHVSK (peptide, UniProt P13068 24-57, looked up, also called signal peptide nisin; nisin A; source: purified from commercial nisin product (Yinxiang, Zhejiang, China)) [nisin]								1 s⁻¹	65.2 M⁻¹ s⁻¹
